Data reported in PMC7187754, “Identification of the Molecular Determinants Involved in Antimicrobial Activity of Pseudodesmin A, a Cyclic Lipopeptide From the Viscosin Group” (Frontiers in Microbiology, 2020).
Read-outs that look alike come from different tables or passages of the source.

How the values were obtained:
[1] = fluorescence permeability assays, model membranes, natural compounds; ref Geudens et al., 2017; cited from earlier work
Source text: We have previously reported the three-dimensional structure of the 2 neutral subgroup representatives, viscosinamide A (D^0) ([Geudens et al., 2014]) and pseudodesmin A (L^0) ([Sinnaeve et al., 2009a], [b]), while that of anionic WLIP (D^–) was already available from literature ([Han et al., 1992]). To avoid ambiguity, the three-dimensional structure is referred to hereafter as the ‘fold’ of a Ps-CLiP whereas the chemical (covalent) structure will simply be referred to as ‘structure’ as indicated in Figure 1C. In spite of the D/L switch in stereochemistry for Leu5, all have identical backbone ...

[2] = tested on: Clostridium perfringens NCTC 8798; format: cell-based
[3] = tested on: Enterococcus faecium LMG 9431; assay: Broth microdilution antimicrobial assay (MIC1/2); format: cell-based
[4] = tested on: Streptococcus pyogenes LMG 15868; assay: Broth microdilution antimicrobial assay (MIC1/2); format: cell-based
[5] = tested on: Enterococcus faecalis LMG 8222; assay: Broth microdilution antimicrobial assay (MIC1/2); format: cell-based
[6] = tested on: Streptococcus pneumoniae LMG 21598; assay: Broth microdilution antimicrobial assay (MIC1/2); format: cell-based
[7] = tested on: Staphylococcus aureus LMG 10147; assay: Broth microdilution antimicrobial assay (MIC1/2); format: cell-based
[8] = RP-HPLC retention time as measure of overall hydrophobicity; format: physicochemical; details: chromatographic, RP-HPLC (LC-MS system: Kinetex C18, 150 mm × 4.60 mm, 5 μm, 1.5 ml/min; gradient not stated at this place)
Method: Chemicals and general procedures are listed in the Supplementary Materials section. All procedures for the synthesis and purification of specific building blocks as well as solid-phase peptide synthesis, and cyclization release of the PsdA-analogs were carried out as described previously for the total synthesis of pseudodesmin A (1) and its enantiomer (2) ([De Vleeschouwer et al., 2014]). Practical details and relevant variations of the procedures for specific cases are collected in the Supplementary Materials section of this paper, together with full characterization of all fatty acid building blocks and analogs. The crude cyclic lipopeptides were purified using either semi-preparative or preparative RP-HPLC. Semi-preparative purification was performed on an Agilent 1100 series instrument using a Kromasil column (C18, 250 mm × 7.8 mm, 5 μm particle size). The analyses were executed with a flow rate of 3 ml/min and with the following solvent systems: H2O containing 0.1% HCOOH (A) and CH3CN (B). […] High-resolution mass spectra were recorded on an Agilent 6220A time-of-flight mass spectrometer, equipped with an Agilent ESI/APCI multimode source. […]

[9] = minimal concentration inhibiting growth by at least 50% vs untreated control, broth microdilution (CLSI), Reinforced Clostridial Medium, 0.016-32 μg/ml twofold dilutions, ~5 × 10^5 CFU/ml, 37°C, 24 h, OD 590 nm
[10] = minimal concentration inhibiting growth by at least 50% vs untreated control, broth microdilution (CLSI), 0.016-32 μg/ml twofold dilutions, ~5 × 10^5 CFU/ml, 37°C, 24 h, OD 590 nm

Compound: viscosin
- C1/2 of membrane permeabilization [1]: ~4.9 µM

Compound: Daptomycin
- MIC1/2 C. perfringens NCTC 8798 [2, 9]: 8 µg/mL
- MIC1/2 E. faecium LMG 9431 [3, 10]: 16 µg/mL
- MIC1/2 S. pyogenes LMG 15868 [4, 10]: 2 µg/mL
- MIC1/2 E. faecalis LMG 8222 [5, 10]: >32 µg/mL
- MIC1/2 S. pneumoniae LMG 21598 [6, 10]: 4 µg/mL

Compound: Pseudodesmin A [compound 1]
- MIC1/2 S. aureus LMG 10147 [7, 10]: 4 µg/mL
- MIC1/2 C. perfringens NCTC 8798 [2, 9]: 2 µg/mL
- MIC1/2 E. faecium LMG 9431 [3, 10]: 4 µg/mL
- C1/2 of membrane permeabilization [1]: ~3.7 µM
- MIC1/2 S. pyogenes LMG 15868 [4, 10]: 1 µg/mL
- MIC1/2 E. faecalis LMG 8222 [5, 10]: 4 µg/mL
- MIC1/2 S. pneumoniae LMG 21598 [6, 10]: 2 µg/mL
- HPLC retention time (overall hydrophobicity) [8]: 7.4 min

Compound: CN[C@H](CC(C)C)C(=O)N[C@H]1C(=O)N[C@@H](CC(N)=O)C(=O)N[C@H]2C(=O)N[C@H]3C(=O)N[C@H](C(=O)N[C@H](C(=O)O)c4cc(O)cc(O)c4-c4cc3ccc4O)[C@H](O)c3ccc(c(Cl)c3)Oc3cc2cc(c3O[C@@H]2O[C@H](CO)[C@@H](O)[C@H](O)[C@H]2O[C@H]2C[C@](C)(N)[C@H](O)[C@H](C)O2)Oc2ccc(cc2Cl)[C@H]1O [Vancomycin]
- MIC1/2 S. aureus LMG 10147 [7]: 2 µg/mL
- MIC1/2 C. perfringens NCTC 8798 [2]: 0.25 µg/mL
- MIC1/2 E. faecium LMG 9431 [3]: 1 µg/mL
- MIC1/2 S. pyogenes LMG 15868 [4]: 0.5 µg/mL
- MIC1/2 E. faecalis LMG 8222 [5]: 4 µg/mL
- MIC1/2 S. pneumoniae LMG 21598 [6]: 0.25 µg/mL
